Results reported in patent US10597388B2, “Pyridazinone herbicides” (FMC CORPORATION, priority 2014, dated 2020).

Legend:
Format in all cases: in vivo
[1] = tested on: barnyardgrass (Echinochloa crus-galli); test: Test A greenhouse herbicide test, pre- and postemergence
Method in brief: (§1)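 Visual injury ratings, 0 (no effect) to 100 (complete control), versus untreated plants after roughly 10 d in a greenhouse. Compounds, formulated in a surfactant-containing non-phytotoxic solvent, were sprayed on loam–sand soil after sowing (pre) or on one- to two-leaf plants 2–10 cm tall (post).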

[2] = tested on: ryegrass, Italian (Italian ryegrass, Lolium multiflorum); test: as above
Method in brief: as §1

[3] = tested on: pigweed (Amaranthus retroflexus); test: as above
Method in brief: as §1

[4] = tested on: ragweed (common ragweed, Ambrosia elatior); test: as above
Method in brief: as §1

[5] = tested on: foxtail, giant (giant foxtail, Setaria faberii); test: as above
Method in brief: as §1

kochia (Kochia scoparia) [6] = test: as above
Method in brief: as §1

corn (Zea mays) = test: as above; conditions: Postemergence
Method in brief: as §1

[7] = tested on: wheat (Triticum aestivum); test: as above; conditions: Postemergence
Method in brief: as §1

[8] = tested on: blackgrass (Alopecurus myosuroides); test: Test A greenhouse herbicide test, postemergence
Method in brief: (§2)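 Seedlings in a loam soil and sand mix received formulated compound postemergence at the one- to two-leaf stage. Greenhouse holding lasts approximately 10 d, then injury is scored visually relative to untreated plants, 0 meaning no effect and 100 complete control.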

[9] = tested on: galium (catchweed bedstraw, Galium aparine); test: Test A greenhouse herbicide test, postemergence
Method in brief: as §2

[10] = tested on: oat, wild (wild oat, Avena fatua); test: Test C greenhouse herbicide test, postemergence; conditions: Postemergence
Method in brief: (§3)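 Plants grown in potting mix of peat moss, vermiculite, wetting agent and starter nutrients were sprayed postemergence at 2 to 18 cm height (1- to 4-leaf stage). After 13 to 15 d in the greenhouse, injury was visually rated against untreated controls on a 0–100 scale (0 no effect, 100 complete control).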

kochia (Kochia scoparia) [11] = test: Test C greenhouse herbicide test, postemergence; conditions: Postemergence
Method in brief: as §3

[12] = Postemergence, 125 g ai/ha, 0 to 100 scale where 0 is no effect and 100 is complete control
[13] = Preemergence, 125 g ai/ha, 0 to 100 scale where 0 is no effect and 100 is complete control
[14] = Preemergence, 500 g ai/ha, 0 to 100 scale where 0 is no effect and 100 is complete control
[15] = Postemergence, 500 g ai/ha, visual rating after approx. 10 d, 0 to 100 scale (0 no effect, 100 complete control)
[16] = 125 g ai/ha, 0 to 100 scale where 0 is no effect and 100 is complete control
[17] = 500 g ai/ha, visual rating after approx. 10 d, 0 to 100 scale (0 no effect, 100 complete control)
[18] = 31 g ai/ha, scale 0 to 100 (0 no effect, 100 complete control)
[19] = 125 g ai/ha, scale 0 to 100, 0 is no effect, 100 is complete control
[20] = 250 g ai/ha, scale 0 to 100, 0 no effect, 100 complete control, 13 to 15 d

CCC(=O)Oc1c(C)nn(C)c(=O)c1-c1c(C)sc2ccc(Cl)cc12 [Compound 109]
Plant response rating, Barnyardgrass [1, 12]: 30
Barnyardgrass plant response rating ([1]; Postemergence, 500 g ai/ha, 0 to 100 scale, 0 is no effect, 100 is complete control): 90
Barnyardgrass plant response rating [1, 13]: 20
Plant response rating, Barnyardgrass [1, 14]: 100
Plant response rating, Ryegrass, Italian [2, 12]: 100
Plant response rating, Ryegrass, Italian [2, 15]: 100
Ryegrass, Italian plant response rating [2, 13]: 100
Plant response rating, Ryegrass, Italian [2, 14]: 100
Plant response rating, Pigweed [3, 12]: 90
Plant response rating, Pigweed [3, 15]: 90
Pigweed plant response rating [3, 13]: 100
Plant response rating, Pigweed [3, 14]: 100
Plant response rating, Ragweed [4, 12]: 80
Plant response rating, Ragweed [4, 15]: 100
Ragweed plant response rating [4, 13]: 100
Plant response rating, Ragweed [4, 14]: 100
Plant response rating, Foxtail, Giant [5, 12]: 70
Plant response rating, Foxtail, Giant [5, 15]: 90
Foxtail, Giant plant response rating [5, 13]: 90
Plant response rating, Foxtail, Giant [5, 14]: 100
Plant response rating, Kochia (kochia (Kochia scoparia) [6]; [12]): 90
Plant response rating, Kochia (kochia (Kochia scoparia) [6]; [15]): 90
Kochia plant response rating (kochia (Kochia scoparia) [6]; [13]): 100
Plant response rating, Kochia (kochia (Kochia scoparia) [6]; [14]): 100
Plant response rating, Corn (corn (Zea mays); [16]): 0
Plant response rating, Corn (corn (Zea mays); [17]): 30
Plant response rating, Wheat [7, 16]: 20
Plant response rating, Wheat [7, 17]: 30
Plant response rating, Blackgrass [8, 16]: 80
Blackgrass plant response rating ([8]; 500 g ai/ha, 0 to 100 scale, 0 is no effect, 100 is complete control): 90
Plant response rating, Galium [9, 16]: 100
Plant response rating, Galium [9, 17]: 100
Plant response rating, Oat, Wild [10, 18]: 80
Plant response rating, Oat, Wild [10, 19]: 90
Plant response rating, Oat, Wild [10, 20]: 90
Plant response rating, Kochia (kochia (Kochia scoparia) [11]; [18]): 95
Plant response rating, Kochia (kochia (Kochia scoparia) [11]; [19]): 100
Plant response rating, Kochia (kochia (Kochia scoparia) [11]; [20]): 100
